Values of other authors, collected in patent US7745108B2, “Method for identifying terpene synthase” (The Regents of the University of California, priority 2003, dated 2010).

Assays:
monoterpene synthases = details: all twelve monoterpene synthases tested
taxadiene synthase = molecular target: T1, taxadiene synthase (Taxus brevifolia, UniProt Q41594)
T1 sequence (Q41594 61-862 limits assumed): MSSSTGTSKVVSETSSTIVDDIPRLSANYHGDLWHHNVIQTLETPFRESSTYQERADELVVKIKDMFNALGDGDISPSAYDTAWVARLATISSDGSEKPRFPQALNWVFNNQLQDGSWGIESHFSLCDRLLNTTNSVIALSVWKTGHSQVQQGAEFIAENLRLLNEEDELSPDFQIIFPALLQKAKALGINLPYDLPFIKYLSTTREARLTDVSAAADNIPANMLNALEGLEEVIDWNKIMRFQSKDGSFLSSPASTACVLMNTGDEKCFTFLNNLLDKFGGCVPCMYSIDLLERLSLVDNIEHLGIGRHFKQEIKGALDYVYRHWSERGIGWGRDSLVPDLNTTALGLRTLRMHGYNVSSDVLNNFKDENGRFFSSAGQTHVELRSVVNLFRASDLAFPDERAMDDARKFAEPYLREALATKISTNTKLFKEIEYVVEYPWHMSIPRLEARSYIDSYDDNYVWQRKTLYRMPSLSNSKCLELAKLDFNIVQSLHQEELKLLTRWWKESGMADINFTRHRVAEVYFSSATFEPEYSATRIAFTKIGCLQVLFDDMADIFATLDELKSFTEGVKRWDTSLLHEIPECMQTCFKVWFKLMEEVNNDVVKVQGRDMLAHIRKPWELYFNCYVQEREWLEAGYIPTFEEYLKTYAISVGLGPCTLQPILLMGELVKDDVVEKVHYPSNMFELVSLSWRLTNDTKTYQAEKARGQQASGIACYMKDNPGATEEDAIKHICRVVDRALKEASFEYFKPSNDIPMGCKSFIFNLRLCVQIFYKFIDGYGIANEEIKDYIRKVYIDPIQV

## cyclopropylidene geranyl diphosphate [CP-GPP]
Monoterpene synthases
  sensitivity of monoterpene synthases to the inhibitor: sensitive

## cyclopropylidene geranylgeranyl diphosphate [CP-GGPP]
Taxadiene synthase
  covalent modification and inhibition of taxadiene synthase: unsuccessful in covalently modifying and inhibiting
